The values below come from patent US11414424B2, “Cardiac sarcomere inhibitors” (Cytokinetics, Inc., priority 2018, dated 2022).

In the assay the test system is bovine cardiac myofibrils. Nature of the assay: Myofibril assay: PK/LDH-coupled steady-state ATPase activity of skinned bovine cardiac myofibrils. It is filed as biochemical. The conditions noted are these: Ca2+ activating to 75% of maximal rate. The method in brief: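 Steady-state ATPase of detergent-skinned bovine left-ventricular myofibrils (1 mg/mL), PK/LDH-coupled NADH read at 340 nm, in PIPES/MgCl2 buffer pH 6.8 with 50 μM ATP, 0.6 mM EGTA and CaCl2 set for 50% or 75% activation. Inhibition of activity measured.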

For `CC(C)N1CC(=O)N(Cc2ccc(Cl)cc2)C2(CN(c3ccnc(C(N)=O)c3)C2)C1=O` [Compound 37, 4-(5-(4-chlorobenzyl)-8-isopropyl-6,9-dioxo-2,5,8-triazaspiro[3.5]nonan-2-yl)picolinamide], the “CDMF75 IC15” value amounted to 6.0 µM.

In the case of `O=C1C(C2CC(O)C2)N(Cc2ccc(C(F)(F)F)cc2)C(=O)CN1c1ncc(Cl)cc1F` (stereo not shown) [Compound 740, 1-(5-chloro-3-fluoropyridin-2-yl)-3-(3-hydroxycyclobutyl)-4-(4-(trifluoromethyl)benzyl)piperazine-2,5-dione], the “CDMF75 IC15” value came to 2.3 µM.

Consider `CNC(=O)N1CCC2(C1)C(=O)N(c1ccc(C#N)nc1)CC(=O)N2Cc1ccc(C(F)(F)F)cc1` (stereo not shown) [Compound 184, 9-(6-cyanopyridin-3-yl)-N-methyl-7,10-dioxo-6-(4-(trifluoromethyl)benzyl)-2,6,9-triazaspiro[4.5]-decane-2-carboxamide], for which the “CDMF75 IC15” value worked out at 25.5 µM.

Consider `CC(=O)N1CC2(C1)C(=O)N(c1ncc(C(F)F)cc1F)CC(=O)N2[C@@H](C)c1ccc(Cl)cc1` [Compound 564, (S)-2-acetyl-5-(1-(4-chlorophenyl)ethyl)-8-(5-(difluoromethyl)-3-fluoropyridin-2-yl)-2,5,8-triazaspiro[3.5]nonane-6,9-dione], for which the “CDMF75 IC15” value worked out at 13.0 µM.

In the case of `COc1ccc(N2CC(=O)N(Cc3ccc(Cl)cc3)[C@]3(CCN(C(C)=O)C3)C2=O)nc1` [Compound 225, (S)-2-acetyl-6-(4-chloro-benzyl)-9-(5-methoxy-pyridin-2-yl)-2,6,9-triazaspiro[4.5]decane-7,10-dione], the “CDMF75 IC15” value was 29.6 µM.

Consider `CC1(C)C(=O)N(c2ncc(Cl)cc2F)CC(=O)N1Cc1ccc(Cl)cc1` [Compound 576, 1-(5-chloro-3-fluoropyridin-2-yl)-4-(4-chlorobenzyl)-3,3-dimethylpiperazine-2,5-dione], for which the “CDMF75 IC15” value was 2.2 µM.

For `CC(C)N1CC(=O)N(Cc2ccc(C(F)(F)F)cc2)C(c2ccc(Cl)cc2)C1=O` (stereo not shown) [Compound 309, 3-(4-chlorophenyl)-1-isopropyl-4-(4-(trifluoro-methyl)benzyl)piperazine-2,5-dione], the “CDMF75 IC15” value came to 2.8 µM.

With `CNC(=O)N1CC2(C1)C(=O)N(C(C)C)CC(=O)N2C(C)c1ccc(C(F)(F)F)cc1` (stereo not shown) [Compound 139, 8-isopropyl-N-methyl-6,9-dioxo-5-(1-(4-(trifluoromethyl)phenyl)-ethyl)-2,5,8-triazaspiro-[3.5]nonane-2-carboxamide], the “CDMF75 IC15” value is 14.8 µM.

For `COCC1C(=O)N(Cc2ccc(Cl)cc2)C2(CN(c3ccc(C#N)cn3)C2)C(=O)N1C(C)C` (stereo not shown) [Compound 347, 6-(5-(4-chlorobenzyl)-8-isopropyl-7-(methoxymethyl)-6,9-dioxo-2,5,8-triazaspiro[3.5]nonan-2-yl)nicotinonitrile], the “CDMF75 IC15” value worked out at 26.4 µM.

Take `COc1cnc(N2CC(=O)N(Cc3ccc(C(F)(F)F)cc3)C(C3COC3)C2=O)c(F)c1` (racemic) [Compound 703, 1-(3-fluoro-5-methoxypyridin-2-yl)-3-(oxetan-3-yl)-4-(4-(trifluoromethyl)benzyl)piperazine-2,5-dione]: the “CDMF75 IC15” value was 10.1 µM.

As for `NC(=O)C12CC(C3C(=O)N(c4ncc(Cl)cc4F)CC(=O)N3Cc3ccc(C(F)F)cc3)(C1)C2` (stereo not shown) [Compound 790, 3-(4-(5-chloro-3-fluoro-pyridin-2-yl)-1-(4-(difluoromethyl)benzyl)-3,6-dioxopiperazin-2-yl)bicyclo[1.1.1]pentane-1-carboxamide], the “CDMF75 IC15” value was 4.9 µM.

As to `CNc1cccc(N2CC3(C2)C(=O)N(c2ccc(C#N)cc2F)CC(=O)N3Cc2ccc(C(F)(F)F)cc2)c1C(=O)OC` [Compound 544, methyl 2-(8-(4-cyano-2-fluorophenyl)-6,9-dioxo-5-(4-(trifluoromethyl)benzyl)-2,5,8-triazaspiro[3.5]nonan-2-yl)-6-(methylamino)-benzoate], the “CDMF75 IC15” value came out at 0.3 µM.

As for `Cc1ccc(CN2C(=O)CN(c3ncc(Cl)cc3F)C(=O)C2C23CC(C(N)=O)(C2)C3)cc1` (stereo not shown) [Compound 792, 3-(4-(5-chloro-3-fluoro-pyridin-2-yl)-1-(4-methyl-benzyl)-3,6-dioxopiperazin-2-yl)bicyclo[1.1.1]pentane-1-carboxamide], the “CDMF75 IC15” value was 3.8 µM.

Regarding `CNC(=O)N1CCC2(C1)C(=O)N(c1ccc(C#N)cc1)CC(=O)N2Cc1ccc(Cl)cc1` (stereo not shown) [Compound 185, 6-(4-chlorobenzyl)-9-(4-cyanophenyl)-N-methyl-7,10-dioxo-2,6,9-triazaspiro[4.5]decane-2-carboxamide], the “CDMF75 IC15” value was 3.2 µM.

For the compound `COc1cc(N2CCC3(C2)C(=O)N(C(C)C)CC(=O)N3Cc2ccc(Cl)cc2)ccn1` (stereo not shown) [Compound 87, 6-(4-chlorobenzyl)-9-isopropyl-2-(2-methoxypyridin-4-yl)-2,6,9-triazaspiro[4.5]-decane-7,10-dione], the “CDMF75 IC15” value is 1.9 µM.

For the compound `CC(C)N1CC(=O)N(Cc2ccc(C(F)(F)F)cc2)C2(CCN(C(=O)Nc3ccncc3)C2)C1=O` (stereo not shown) [Compound 111, 9-isopropyl-7,10-dioxo-N-(pyridin-4-yl)-6-(4-(trifluoromethyl)benzyl)-2,6,9-triazaspiro[4.5]-decane-2-carboxamide], the “CDMF75 IC15” value was 19.8 µM.

In the case of `CCOC(=O)C1CC2(C1)C(=O)N(c1ncc(Cl)cc1F)CC(=O)N2Cc1ccc(C(F)(F)F)cc1` (single isomer, unassigned) [Compound 859B, ethyl 8-(5-chloro-3-fluoropyridin-2-yl)-6,9-dioxo-5-(4-(trifluoromethyl)benzyl)-5,8-diazaspiro[3.5]nonane-2-carboxylate], the “CDMF75 IC15” value is 0.3 µM.

Regarding `CC(C)N1CC(=O)N(Cc2ccc(C(F)(F)F)cc2)C2(CCN(c3ccccc3)C2=O)C1=O` (stereo not shown) [Compound 327, 9-isopropyl-2-phenyl-6-(4-(trifluoromethyl)benzyl)-2,6,9-triazaspiro[4.5]decane-1,7,10-trione], the “CDMF75 IC15” value came to 9.8 µM.

`CC(C)N1CC(=O)N(Cc2ccc(Cl)cc2)C2(CN(c3cnccn3)C2)C1=O` [Compound 12, 5-(4-chlorobenzyl)-8-isopropyl-2-(pyrazin-2-yl)-2,5,8-triazaspiro-[3.5]nonane-6,9-dione]: the “CDMF75 IC15” value came to 6.6 µM.

Take `CC(=O)N1CC2(C1)C(=O)N(c1ccc(-c3ncon3)cc1F)CC(=O)N2Cc1ccc(C(F)(F)F)cc1` [Compound 701, 2-acetyl-8-(2-fluoro-4-(1,2,4-oxadiazol-3-yl)phenyl)-5-(4-(trifluoromethyl)benzyl)-2,5,8-triazaspiro[3.5]nonane-6,9-dione]: the “CDMF75 IC15” value worked out at 3.9 µM.

In the case of `N#Cc1ccc(N2CC(=O)N(Cc3ccc(C(F)(F)F)cc3)[C@@H](C3CCC3)C2=O)c(F)c1` [Compound 284, (S)-4-(3-cyclobutyl-2,5-dioxo-4-(4-(trifluoromethyl)benzyl)piperazin-1-yl)-3-fluorobenzonitrile], the “CDMF75 IC15” value stood at 0.5 µM.

`Cc1cc(Cl)cnc1N1CC(=O)N(Cc2ccc(F)c(Cl)c2)C(C2COC2)C1=O` (stereo not shown) [Compound 717, 1-(5-chloro-3-methyl-pyridin-2-yl)-4-(3-chloro-4-fluorobenzyl)-3-(oxetan-3-yl)piperazine-2,5-dione]: the “CDMF75 IC15” value came to 7.3 µM.

As to `CC(C)N1CC(=O)N(Cc2ccc(Cl)cc2)C(c2ccc(Cl)cn2)C1=O` (stereo not shown) [Compound 297, 4-(4-chlorobenzyl)-3-(5-chloropyridin-2-yl)-1-isopropylpiperazine-2,5-dione], the “CDMF75 IC15” value is 11.6 µM.

For the compound `CC(C)N1CC(=O)N(Cc2ccc(Cl)cc2)C2(CCN(c3ccccn3)C2)C1=O` (stereo not shown) [Compound 128, 6-(4-chlorobenzyl)-9-isopropyl-2-(pyridin-2-yl)-2,6,9-triazaspiro[4.5]decane-7,10-dione], the “CDMF75 IC15” value was 0.8 µM.

Regarding `CC(=O)N1CC2(C1)C(=O)N(c1ncc(Cl)cc1F)CC(=O)N2Cc1ccc(Cl)cc1` [Compound 182, 2-acetyl-8-(5-chloro-3-fluoropyridin-2-yl)-5-(4-chlorobenzyl)-2,5,8-triazaspiro[3.5]nonane-6,9-dione], the “CDMF75 IC15” value worked out at 2.9 µM.

For the compound `CC(C)N1CC(=O)N(Cc2ccc(C(F)(F)F)cc2)C2(CCN(C(=O)NC3CCC3)C2)C1=O` (stereo not shown) [Compound 1, N-cyclobutyl-9-isopropyl-7,10-dioxo-6-(4-(trifluoromethyl)benzyl)-2,6,9-triazaspiro[4.5]-decane-2-carboxamide], the “CDMF75 IC15” value was determined as 9.5 µM.

On to `O=C1CN(c2ncc(Cl)cc2F)C(=O)C2(CC3(COC3)C2)N1Cc1ccc(C(F)(F)F)cc1` [Compound 813, 10-(5-chloro-3-fluoro-pyridin-2-yl)-7-(4-(trifluoro-methyl)benzyl)-2-oxa-7,10-diazadispiro-[3.1.56.14]dodecane-8,11-dione], for which the “CDMF75 IC15” value turned out to be 0.4 µM.

For the compound `COC(=O)N1CC2(C1)C(=O)N(c1ccc(C#N)c(F)c1)CC(=O)N2Cc1ccc(C(F)(F)F)cc1` [Compound 196, methyl 8-(4-cyano-3-fluorophenyl)-6,9-dioxo-5-(4-(trifluoromethyl)benzyl)-2,5,8-triazaspiro[3.5]nonane-2-carboxylate], the “CDMF75 IC15” value was found to be 0.4 µM.

Take `N#Cc1ccc(N2CC(=O)N(Cc3ccc(C(F)(F)F)cc3)[C@]3(CCN(C(=O)C4CCC4)C3)C2=O)c(F)c1` [Compound 217, (S)-4-(2-(cyclobutane-carbonyl)-7,10-dioxo-6-(4-(trifluoromethyl)benzyl)-2,6,9-triazaspiro[4.5]decan-9-yl)-3-fluorobenzonitrile]: the “CDMF75 IC15” value was 0.9 µM.

For `CC(=O)N1CC2(C1)C(=O)N(c1ccc(C#N)cc1F)CC(=O)N2Cc1ccc(F)cc1` [Compound 176, 4-(2-acetyl-5-(4-fluoro-benzyl)-6,9-dioxo-2,5,8-triazaspiro[3.5]nonan-8-yl)-3-fluorobenzonitrile], the “CDMF75 IC15” value is 8.5 µM.

As to `CC(C)N1CC(=O)N(Cc2cccc(Cl)c2)C(c2ccc(Cl)cc2)C1=O` (stereo not shown) [Compound 298, 4-(3-chlorobenzyl)-3-(4-chlorophenyl)-1-isopropylpiperazine-2,5-dione], the “CDMF75 IC15” value stood at 5.4 µM.
